{"source": "the kinase profiling compilation of Christmann-Franck et al. (2016)", "details_in_all_cases": "compound 10.0 µM", "key": {"[1]": {"target": "AKT3 (human) (UniProt Q9Y243)"}, "[2]": {"target": "CAMKK1 (human) (UniProt Q8N5S9)"}, "[3]": {"target": "CAMKK2 (human) (UniProt Q96RR4)"}, "[4]": {"target": "CDK15 (human) (UniProt Q96Q40)"}, "[5]": {"target": "CDKL1 (human) (UniProt Q00532)"}, "[6]": {"target": "CHEK1 (human) (UniProt O14757)"}, "[7]": {"target": "DCLK1 (human) (UniProt O15075)"}, "[8]": {"target": "DDR2 (human) (UniProt Q16832)", "sequence (Q16832 whole entry, looked up)": "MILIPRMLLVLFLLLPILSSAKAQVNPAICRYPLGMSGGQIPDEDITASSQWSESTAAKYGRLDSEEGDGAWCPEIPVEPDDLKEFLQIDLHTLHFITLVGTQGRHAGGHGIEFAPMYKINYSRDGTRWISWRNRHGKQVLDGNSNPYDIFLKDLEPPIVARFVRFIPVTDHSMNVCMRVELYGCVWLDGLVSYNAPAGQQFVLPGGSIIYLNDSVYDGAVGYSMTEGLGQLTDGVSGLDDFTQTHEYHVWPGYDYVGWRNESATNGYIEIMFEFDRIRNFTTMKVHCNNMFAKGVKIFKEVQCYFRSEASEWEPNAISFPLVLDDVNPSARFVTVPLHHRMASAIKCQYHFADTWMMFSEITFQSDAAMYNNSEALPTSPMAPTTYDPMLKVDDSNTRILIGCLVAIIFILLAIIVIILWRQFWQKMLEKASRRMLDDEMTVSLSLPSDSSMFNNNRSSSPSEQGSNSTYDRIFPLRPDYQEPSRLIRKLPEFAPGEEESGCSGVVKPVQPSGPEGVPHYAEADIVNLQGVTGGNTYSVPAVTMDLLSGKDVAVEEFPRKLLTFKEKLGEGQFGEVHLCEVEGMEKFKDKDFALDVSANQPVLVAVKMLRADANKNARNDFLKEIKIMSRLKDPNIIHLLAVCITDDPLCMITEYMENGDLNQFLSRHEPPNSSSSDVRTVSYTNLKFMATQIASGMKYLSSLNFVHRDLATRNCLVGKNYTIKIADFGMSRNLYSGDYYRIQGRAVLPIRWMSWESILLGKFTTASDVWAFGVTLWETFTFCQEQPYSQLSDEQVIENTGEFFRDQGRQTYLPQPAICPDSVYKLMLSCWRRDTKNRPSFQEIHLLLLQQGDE"}, "[9]": {"target": "DYRK1B (human) (UniProt Q9Y463)", "sequence (Q9Y463 whole entry, looked up)": "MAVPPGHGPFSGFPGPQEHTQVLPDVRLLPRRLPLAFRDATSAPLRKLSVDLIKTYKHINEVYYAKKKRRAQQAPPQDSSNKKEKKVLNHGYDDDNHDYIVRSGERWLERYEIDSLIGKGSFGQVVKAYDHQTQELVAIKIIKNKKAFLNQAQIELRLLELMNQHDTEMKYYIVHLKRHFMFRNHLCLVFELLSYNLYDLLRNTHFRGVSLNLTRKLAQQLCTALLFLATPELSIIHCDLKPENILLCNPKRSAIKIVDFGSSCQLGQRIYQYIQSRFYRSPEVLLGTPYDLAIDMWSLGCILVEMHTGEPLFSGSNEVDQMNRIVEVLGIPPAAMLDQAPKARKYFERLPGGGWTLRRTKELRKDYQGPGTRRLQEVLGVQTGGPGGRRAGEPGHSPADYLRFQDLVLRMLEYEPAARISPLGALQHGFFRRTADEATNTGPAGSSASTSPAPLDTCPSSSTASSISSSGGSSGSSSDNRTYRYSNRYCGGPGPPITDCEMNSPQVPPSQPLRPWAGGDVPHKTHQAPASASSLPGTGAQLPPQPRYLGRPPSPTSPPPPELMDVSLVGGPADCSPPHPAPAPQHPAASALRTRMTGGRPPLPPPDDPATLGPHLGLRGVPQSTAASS"}, "[10]": {"target": "EPHA2 (human) (UniProt P29317)"}, "[11]": {"target": "EPHB3 (human) (UniProt P54753)", "sequence (P54753 whole entry, looked up)": "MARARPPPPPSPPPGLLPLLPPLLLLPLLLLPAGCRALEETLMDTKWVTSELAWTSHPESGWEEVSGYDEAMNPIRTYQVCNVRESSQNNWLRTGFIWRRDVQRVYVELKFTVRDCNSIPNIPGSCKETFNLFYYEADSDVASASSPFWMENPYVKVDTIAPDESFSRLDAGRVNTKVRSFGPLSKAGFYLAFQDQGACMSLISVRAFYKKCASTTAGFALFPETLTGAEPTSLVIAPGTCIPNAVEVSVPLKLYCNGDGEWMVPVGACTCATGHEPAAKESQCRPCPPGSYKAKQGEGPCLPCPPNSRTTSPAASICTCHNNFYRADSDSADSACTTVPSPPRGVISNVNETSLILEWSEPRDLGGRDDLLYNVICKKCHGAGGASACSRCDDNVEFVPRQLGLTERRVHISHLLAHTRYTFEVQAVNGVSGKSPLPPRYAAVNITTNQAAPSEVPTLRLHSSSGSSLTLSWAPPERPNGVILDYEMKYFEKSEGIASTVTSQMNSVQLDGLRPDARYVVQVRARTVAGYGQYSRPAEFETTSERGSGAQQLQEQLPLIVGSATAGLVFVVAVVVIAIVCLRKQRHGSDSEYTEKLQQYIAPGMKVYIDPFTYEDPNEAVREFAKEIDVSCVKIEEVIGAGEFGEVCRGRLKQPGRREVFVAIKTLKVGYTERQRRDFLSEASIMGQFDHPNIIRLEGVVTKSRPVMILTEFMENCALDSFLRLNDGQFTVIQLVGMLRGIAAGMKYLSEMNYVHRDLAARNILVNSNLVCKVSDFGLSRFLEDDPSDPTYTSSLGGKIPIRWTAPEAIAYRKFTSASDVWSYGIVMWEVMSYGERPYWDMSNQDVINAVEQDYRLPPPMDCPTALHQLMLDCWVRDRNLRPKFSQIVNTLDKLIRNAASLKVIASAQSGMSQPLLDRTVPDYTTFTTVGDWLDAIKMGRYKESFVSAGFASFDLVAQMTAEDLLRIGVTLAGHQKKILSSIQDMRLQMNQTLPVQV"}, "[12]": {"target": "FER (human) (UniProt P16591)"}, "[13]": {"target": "HIPK3 (human) (UniProt Q9H422)"}, "[14]": {"target": "INSR (human) (UniProt P06213)"}, "[15]": {"target": "JAK2 JH1 catalytic (human) (UniProt O60674)"}, "[16]": {"system": "LRRK2 (human), Q5S007 [G2019S]"}, "[17]": {"target": "MAP3K3 (human) (UniProt Q99759)"}, "[18]": {"target": "MAP3K5 (human) (UniProt Q99683)"}, "[19]": {"target": "MAP3K9 (human) (UniProt P80192)"}, "[20]": {"target": "MAPK13 (human) (UniProt O15264)"}, "[21]": {"target": "MAPK14 (human) (UniProt Q16539)"}, "[22]": {"target": "MAPK3 (human) (UniProt P27361)"}, "[23]": {"target": "MAPK8 (human) (UniProt P45983)"}, "[24]": {"target": "MARK4 (human) (UniProt Q96L34)"}, "[25]": {"target": "MATK (human) (UniProt P42679)"}, "[26]": {"target": "MELK (human) (UniProt Q14680)"}, "[27]": {"target": "MST1R (human) (UniProt Q04912)"}, "[28]": {"target": "NEK11 (human) (UniProt Q8NG66)"}, "[29]": {"target": "NEK2 (human) (UniProt P51955)"}, "[30]": {"target": "NLK (human) (UniProt Q9UBE8)"}, "[31]": {"target": "NUAK1 (human) (UniProt O60285)"}, "[32]": {"target": "PAK6 (human) (UniProt Q9NQU5)"}, "[33]": {"target": "PIP4K2B (human) (UniProt P78356)"}, "[34]": {"target": "PRKCI (human) (UniProt P41743)", "sequence (P41743 whole entry, looked up)": "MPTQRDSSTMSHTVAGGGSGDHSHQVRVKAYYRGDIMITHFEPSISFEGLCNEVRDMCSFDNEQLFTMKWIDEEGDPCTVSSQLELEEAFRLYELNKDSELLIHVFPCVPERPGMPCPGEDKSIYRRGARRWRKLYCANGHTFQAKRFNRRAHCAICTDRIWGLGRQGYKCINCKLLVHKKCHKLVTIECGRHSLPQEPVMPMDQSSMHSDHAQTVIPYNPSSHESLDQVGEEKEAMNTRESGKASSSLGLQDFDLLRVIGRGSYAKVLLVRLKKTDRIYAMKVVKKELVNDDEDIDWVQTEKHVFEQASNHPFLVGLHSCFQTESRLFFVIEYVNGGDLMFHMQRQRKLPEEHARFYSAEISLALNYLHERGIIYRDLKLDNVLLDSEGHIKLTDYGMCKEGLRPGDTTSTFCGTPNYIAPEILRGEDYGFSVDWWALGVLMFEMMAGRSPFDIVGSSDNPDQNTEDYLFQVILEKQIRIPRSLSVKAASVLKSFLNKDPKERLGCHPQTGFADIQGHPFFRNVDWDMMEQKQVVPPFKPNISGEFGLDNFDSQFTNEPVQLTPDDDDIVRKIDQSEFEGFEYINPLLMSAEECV"}, "[35]": {"target": "PRKG2 (human) (UniProt Q13237)"}, "[36]": {"target": "RET (human) (UniProt P07949)"}, "[37]": {"target": "RIOK1 (human) (UniProt Q9BRS2)"}, "[38]": {"target": "RPS6KA1 KD2 (human) (UniProt Q15418)"}, "[39]": {"target": "SIK3 (human) (UniProt Q9Y2K2)", "sequence (Q9Y2K2 whole entry, looked up)": "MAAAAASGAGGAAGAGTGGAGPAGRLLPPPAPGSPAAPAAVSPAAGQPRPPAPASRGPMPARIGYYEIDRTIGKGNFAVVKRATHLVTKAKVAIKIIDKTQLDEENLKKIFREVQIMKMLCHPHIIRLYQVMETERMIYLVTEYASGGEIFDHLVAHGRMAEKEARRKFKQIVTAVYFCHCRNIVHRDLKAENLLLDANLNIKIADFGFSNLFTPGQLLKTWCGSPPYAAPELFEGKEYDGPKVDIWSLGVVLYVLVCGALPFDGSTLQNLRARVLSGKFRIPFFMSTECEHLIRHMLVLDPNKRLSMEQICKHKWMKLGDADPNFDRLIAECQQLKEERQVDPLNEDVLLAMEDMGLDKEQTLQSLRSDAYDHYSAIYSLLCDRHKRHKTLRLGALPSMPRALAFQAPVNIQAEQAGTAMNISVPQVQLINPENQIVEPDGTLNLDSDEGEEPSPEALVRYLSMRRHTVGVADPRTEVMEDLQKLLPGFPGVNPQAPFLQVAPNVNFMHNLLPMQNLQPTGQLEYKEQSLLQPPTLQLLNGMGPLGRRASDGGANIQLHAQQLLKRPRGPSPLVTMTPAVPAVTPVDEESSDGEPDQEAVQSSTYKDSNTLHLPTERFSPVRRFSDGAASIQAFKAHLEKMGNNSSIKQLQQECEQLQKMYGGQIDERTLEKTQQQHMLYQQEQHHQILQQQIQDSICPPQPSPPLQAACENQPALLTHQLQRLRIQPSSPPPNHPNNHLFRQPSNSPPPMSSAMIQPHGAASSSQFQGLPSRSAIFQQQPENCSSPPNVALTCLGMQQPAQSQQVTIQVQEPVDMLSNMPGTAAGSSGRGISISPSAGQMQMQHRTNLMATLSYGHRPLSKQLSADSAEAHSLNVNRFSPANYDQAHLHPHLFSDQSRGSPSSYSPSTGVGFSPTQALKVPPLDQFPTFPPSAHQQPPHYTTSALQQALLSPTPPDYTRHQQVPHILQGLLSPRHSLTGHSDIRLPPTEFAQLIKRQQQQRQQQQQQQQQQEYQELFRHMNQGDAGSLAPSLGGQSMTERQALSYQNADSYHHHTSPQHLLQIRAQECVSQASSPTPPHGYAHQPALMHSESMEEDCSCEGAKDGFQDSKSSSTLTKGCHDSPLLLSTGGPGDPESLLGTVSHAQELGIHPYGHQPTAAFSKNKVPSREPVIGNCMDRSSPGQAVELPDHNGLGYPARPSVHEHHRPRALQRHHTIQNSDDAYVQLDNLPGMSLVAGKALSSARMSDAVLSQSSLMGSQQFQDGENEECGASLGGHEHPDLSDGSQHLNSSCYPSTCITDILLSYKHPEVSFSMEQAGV"}, "[40]": {"target": "STK3 (human) (UniProt Q13188)", "sequence (Q13188 whole entry, looked up)": "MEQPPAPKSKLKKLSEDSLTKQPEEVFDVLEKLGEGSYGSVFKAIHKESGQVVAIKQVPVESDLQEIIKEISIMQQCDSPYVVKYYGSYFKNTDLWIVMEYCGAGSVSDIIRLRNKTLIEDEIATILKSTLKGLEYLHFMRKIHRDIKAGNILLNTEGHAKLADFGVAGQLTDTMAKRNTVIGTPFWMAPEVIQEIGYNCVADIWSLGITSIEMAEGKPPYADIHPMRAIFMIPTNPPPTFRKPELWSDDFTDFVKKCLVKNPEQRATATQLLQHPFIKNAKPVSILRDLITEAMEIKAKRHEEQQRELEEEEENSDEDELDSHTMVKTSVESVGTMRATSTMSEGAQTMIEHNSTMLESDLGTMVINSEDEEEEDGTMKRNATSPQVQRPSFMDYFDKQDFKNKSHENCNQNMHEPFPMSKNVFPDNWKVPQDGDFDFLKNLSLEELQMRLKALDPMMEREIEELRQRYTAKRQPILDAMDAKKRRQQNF"}, "[41]": {"target": "TEK (human) (UniProt Q02763)"}, "[42]": {"target": "TLK1 (human) (UniProt Q9UKI8)"}}, "data": [{"compound": "CNC(=O)c1cc(Oc2ccc(NC(=O)Nc3ccc(Cl)c(C(F)(F)F)c3)cc2)cc[n+]1[O-]", "values": [{"measurement": "per cent of control", "setting": "[1]", "value": 93, "unit": "%"}, {"measurement": "per cent of control", "setting": "[2]", "value": 79, "unit": "%"}, {"measurement": "per cent of control", "setting": "[3]", "value": 68, "unit": "%"}, {"measurement": "per cent of control", "setting": "[4]", "value": 9.6, "unit": "%"}, {"measurement": "per cent of control", "setting": "[5]", "value": 45, "unit": "%"}, {"measurement": "per cent of control", "setting": "[6]", "value": 79, "unit": "%"}, {"measurement": "per cent of control", "setting": "[7]", "value": 53, "unit": "%"}, {"measurement": "per cent of control", "setting": "[8]", "value": 19, "unit": "%"}, {"measurement": "per cent of control", "setting": "[9]", "value": 69, "unit": "%"}, {"measurement": "per cent of control", "setting": "[10]", "value": 4.7, "unit": "%"}, {"measurement": "per cent of control", "setting": "[11]", "value": 100, "unit": "%"}, {"measurement": "per cent of control", "setting": "[12]", "value": 64, "unit": "%"}, {"measurement": "per cent of control", "setting": "[13]", "value": 5.1, "unit": "%"}, {"measurement": "per cent of control", "setting": "[14]", "value": 83, "unit": "%"}, {"measurement": "per cent of control", "setting": "[15]", "value": 68, "unit": "%"}, {"measurement": "per cent of control", "setting": "[16]", "value": 64, "unit": "%"}, {"measurement": "per cent of control", "setting": "[17]", "value": 96, "unit": "%"}, {"measurement": "per cent of control", "setting": "[18]", "value": 89, "unit": "%"}, {"measurement": "per cent of control", "setting": "[19]", "value": 100, "unit": "%"}, {"measurement": "per cent of control", "setting": "[20]", "value": 0.55, "unit": "%"}, {"measurement": "per cent of control", "setting": "[21]", "value": 0, "unit": "%"}, {"measurement": "per cent of control", "setting": "[22]", "value": 92, "unit": "%"}, {"measurement": "per cent of control", "setting": "[23]", "value": 13, "unit": "%"}, {"measurement": "per cent of control", "setting": "[24]", "value": 100, "unit": "%"}, {"measurement": "per cent of control", "setting": "[25]", "value": 62, "unit": "%"}, {"measurement": "per cent of control", "setting": "[26]", "value": 65, "unit": "%"}, {"measurement": "per cent of control", "setting": "[27]", "value": 30, "unit": "%"}, {"measurement": "per cent of control", "setting": "[28]", "value": 100, "unit": "%"}, {"measurement": "per cent of control", "setting": "[29]", "value": 71, "unit": "%"}, {"measurement": "per cent of control", "setting": "[30]", "value": 11, "unit": "%"}, {"measurement": "per cent of control", "setting": "[31]", "value": 100, "unit": "%"}, {"measurement": "per cent of control", "setting": "[32]", "value": 82, "unit": "%"}, {"measurement": "per cent of control", "setting": "[33]", "value": 88, "unit": "%"}, {"measurement": "per cent of control", "setting": "[34]", "value": 100, "unit": "%"}, {"measurement": "per cent of control", "setting": "[35]", "value": 100, "unit": "%"}, {"measurement": "per cent of control", "setting": "[36]", "value": 0, "unit": "%"}, {"measurement": "per cent of control", "setting": "[37]", "value": 100, "unit": "%"}, {"measurement": "per cent of control", "setting": "[38]", "value": 58, "unit": "%"}, {"measurement": "per cent of control", "setting": "[39]", "value": 100, "unit": "%"}, {"measurement": "per cent of control", "setting": "[40]", "value": 100, "unit": "%"}, {"measurement": "per cent of control", "setting": "[41]", "value": 3.5, "unit": "%"}, {"measurement": "per cent of control", "setting": "[42]", "value": 60, "unit": "%"}]}, {"compound": "CNC(=O)c1cc(Oc2ccc(NC(=O)Nc3ccc(Cl)c(C(F)(F)F)c3)cc2)ccn1", "values": [{"measurement": "per cent of control", "setting": "[1]", "value": 90, "unit": "%"}, {"measurement": "per cent of control", "setting": "[2]", "value": 100, "unit": "%"}, {"measurement": "per cent of control", "setting": "[3]", "value": 100, "unit": "%"}, {"measurement": "per cent of control", "setting": "[4]", "value": 7.4, "unit": "%"}, {"measurement": "per cent of control", "setting": "[5]", "value": 75, "unit": "%"}, {"measurement": "per cent of control", "setting": "[6]", "value": 49, "unit": "%"}, {"measurement": "per cent of control", "setting": "[7]", "value": 62, "unit": "%"}, {"measurement": "per cent of control", "setting": "[8]", "value": 13, "unit": "%"}, {"measurement": "per cent of control", "setting": "[9]", "value": 67, "unit": "%"}, {"measurement": "per cent of control", "setting": "[10]", "value": 9, "unit": "%"}, {"measurement": "per cent of control", "setting": "[11]", "value": 53, "unit": "%"}, {"measurement": "per cent of control", "setting": "[12]", "value": 77, "unit": "%"}, {"measurement": "per cent of control", "setting": "[13]", "value": 1.2, "unit": "%"}, {"measurement": "per cent of control", "setting": "[14]", "value": 100, "unit": "%"}, {"measurement": "per cent of control", "setting": "[15]", "value": 70, "unit": "%"}, {"measurement": "per cent of control", "setting": "[16]", "value": 62, "unit": "%"}, {"measurement": "per cent of control", "setting": "[17]", "value": 97, "unit": "%"}, {"measurement": "per cent of control", "setting": "[18]", "value": 100, "unit": "%"}, {"measurement": "per cent of control", "setting": "[19]", "value": 100, "unit": "%"}, {"measurement": "per cent of control", "setting": "[20]", "value": 21, "unit": "%"}, {"measurement": "per cent of control", "setting": "[21]", "value": 0.1, "unit": "%"}, {"measurement": "per cent of control", "setting": "[22]", "value": 95, "unit": "%"}, {"measurement": "per cent of control", "setting": "[23]", "value": 88, "unit": "%"}, {"measurement": "per cent of control", "setting": "[24]", "value": 93, "unit": "%"}, {"measurement": "per cent of control", "setting": "[25]", "value": 64, "unit": "%"}, {"measurement": "per cent of control", "setting": "[26]", "value": 83, "unit": "%"}, {"measurement": "per cent of control", "setting": "[27]", "value": 76, "unit": "%"}, {"measurement": "per cent of control", "setting": "[28]", "value": 99, "unit": "%"}, {"measurement": "per cent of control", "setting": "[29]", "value": 90, "unit": "%"}, {"measurement": "per cent of control", "setting": "[30]", "value": 19, "unit": "%"}, {"measurement": "per cent of control", "setting": "[31]", "value": 74, "unit": "%"}, {"measurement": "per cent of control", "setting": "[32]", "value": 86, "unit": "%"}, {"measurement": "per cent of control", "setting": "[33]", "value": 89, "unit": "%"}, {"measurement": "per cent of control", "setting": "[34]", "value": 100, "unit": "%"}, {"measurement": "per cent of control", "setting": "[35]", "value": 100, "unit": "%"}, {"measurement": "per cent of control", "setting": "[36]", "value": 0, "unit": "%"}, {"measurement": "per cent of control", "setting": "[37]", "value": 100, "unit": "%"}, {"measurement": "per cent of control", "setting": "[38]", "value": 77, "unit": "%"}, {"measurement": "per cent of control", "setting": "[39]", "value": 100, "unit": "%"}, {"measurement": "per cent of control", "setting": "[40]", "value": 100, "unit": "%"}, {"measurement": "per cent of control", "setting": "[41]", "value": 2.8, "unit": "%"}, {"measurement": "per cent of control", "setting": "[42]", "value": 74, "unit": "%"}]}]}
